From PMC9068870, “Modulation of Morphine Analgesia, Antinociceptive Tolerance, and Mu-Opioid Receptor Binding by the Cannabinoid CB2 Receptor Agonist O-1966” (Frontiers in Pharmacology, 2022)

Experiments:
[1] = molecular target: T1, rat mu-opioid receptor (rMOR) (Rattus norvegicus, UniProt P33535); experiment: competition with [3H]DAMGO, filtration, CHO-rMOR membranes; type: binding
T1 construct: gene Oprm1; stably expressed in CHO cells (CHO-rMOR); cell membranes

[2] = molecular target: T1, rat mu-opioid receptor (rMOR); experiment: […]GTPγS binding, CHO-rMOR membranes; type: biochemical; conditions: O-1966 10 min before 0.5 µM morphine; 10 µM GDP, 50 mM HEPES, 100 mM NaCl, 5 mM MgCl2, 30 °C, 1 h; negative allosteric mode suggested only

T1 sequence (P33535 whole entry): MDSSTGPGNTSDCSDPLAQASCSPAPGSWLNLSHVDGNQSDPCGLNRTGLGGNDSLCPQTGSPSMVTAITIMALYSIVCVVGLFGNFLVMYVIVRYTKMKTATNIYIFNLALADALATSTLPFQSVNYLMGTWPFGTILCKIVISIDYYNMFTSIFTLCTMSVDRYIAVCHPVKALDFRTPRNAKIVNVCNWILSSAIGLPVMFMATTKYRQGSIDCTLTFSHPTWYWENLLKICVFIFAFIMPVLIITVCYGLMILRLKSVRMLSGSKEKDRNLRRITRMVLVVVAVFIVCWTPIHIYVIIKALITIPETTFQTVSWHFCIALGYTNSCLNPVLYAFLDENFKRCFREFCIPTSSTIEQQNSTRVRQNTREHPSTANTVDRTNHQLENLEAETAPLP

`CCCCCCC(C)(C)c1cc(OC)c(C2(O)CCCC(C)C2)c(OC)c1` (centres unmarked) [O-1966] was tested, and the Ki [1] was 3.04 µM and the “% reduction of morphine response at 10 μM” value [2] was 20%.
